Measurements reported in patent US20040157738A1, “Novel oxygen containing fused cyclic derivatives and herbicidal, desiccant and defoliate compositions containing them” (ISHIHARA SANGYO KAISHA, LTD., priority 2003, published 2004).

Legend:
Assay type in all cases: in vivo
[1] = system: soybean (Glycine max Merr.), GLXMA; assay: Test Example 2: post-emergence (foliage treatment) herbicidal activity (growth controlling degree); details: 0.2-0.3 leaf stage
Excerpt: (§1) Upland field soil was put into a 1/170,000 ha pot, and seeds of various plants were sown. Then, when the plants reached predetermined leaf stages [I. barnyardgrass (Echinochloa crus-galli L.), ECHCG: 1.8-2.4 leaf stage, 2. crabgrass (Digitaria sanguinalis L.), DIGSA: 1.5-2.2 leaf stage, 3. green foxtail (Setaria viridis L.), SETVI: 1.7-2.5 leaf stage, 4. redroot pigweed (Amaranthus retroflexus L.), AMARE: 0.1-0.3 leaf stage, 5. prickly sida (Sida spinosa L.), SIDSP: 0.3-0.5 leaf stage, 6. velvetleaf (Abutilon theophrasti), ABUTH: 0.3-0.4 leaf stage, 7. common cocklebur (Xanthium strumarium L.), XANST: 0.2-0.6 leaf stage, 8. rice (Oryza sativa L.), ORYSA: 1.6-2.2 leaf stage, 9. wheat (Triticum aestivum L.), TRZAX: 2.8 leaf stage, 10. corn (Zea mays L.), ZEAMX: 2.2-2.5 leaf stage, 11. soybean (Glycine max Merr.), GLXMA: 0.2-0.3 leaf stage], a wettable powder or emulsifiable concentrate having the compound of the present invention formulated in accordance with a usual formulation method, was weighed so that the active ingredient would be a predetermined amount, and diluted with water in an amount of 500 L/ha. To the diluted solution, 0.1%(v/v) of an agricultural spreader was added. The herbicide adjusted was applied by a small size sprayer for foliage treatment. On the […] day after the application of the herbicide, the growth of the respective plants was visually observed, and the herbicidal effects were evaluated by growth controlling degrees (%) ranging from 0 (equivalent to the untreated control) to 100 (complete kill), whereby the results shown in Table 12, were obtained. Compound Nos. in Table 12 correspond to Compound Nos. in Table 1 to 7 given hereinbefore.

[2] = system: velvetleaf (Abutilon theophrasti), ABUTH; assay: as above; details: 0.3-0.4 leaf stage
Excerpt: as §1

[3] = system: corn (Zea mays L.), ZEAMX; assay: as above; details: 2.2-2.5 leaf stage
Excerpt: as §1

[4] = system: redroot pigweed (Amaranthus retroflexus L.), AMARE; assay: as above; details: 0.1-0.3 leaf stage
Excerpt: as §1

[5] = system: common cocklebur (Xanthium strumarium L.), XANST; assay: as above; details: Xanthium strumarium, 504 h, 31 g a.i./ha, 0.2-0.6 leaf stage
Excerpt: as §1

[6] = system: prickly sida (Sida spinosa L.), SIDSP; assay: as above; details: 0.3-0.5 leaf stage
Excerpt: as §1

[7] = system: barnyardgrass (Echinochloa crus-galli L.), ECHCG; assay: as above; details: 1.8-2.4 leaf stage
Excerpt: as §1

[8] = system: rice (Oryza sativa L.), ORYSA; assay: as above; details: 1.6-2.2 leaf stage
Excerpt: as §1

[9] = system: crabgrass (Digitaria sanguinalis L.), DIGSA; assay: as above; details: 1.5-2.2 leaf stage
Excerpt: as §1

[10] = system: green foxtail (Setaria viridis L.), SETVI; assay: as above; details: 1.7-2.5 leaf stage
Excerpt: as §1

[11] = system: rice (Oryza sativa L.: ORYSA); assay: Test Example 3: water application herbicidal activity, paddy (growth controlling degree); details: rate 63 g a.i./ha, paddy pot, rice of 2 leaf stage transplanted, treated on the 4th day after transplantation
Excerpt: (§2) Paddy field soil was put into a {fraction (1/1,000,000)} ha pot, and seeds of barnyardgrass (Echinochloa oryzicola: ECHOR) and japanese bulrush (Scirpus juncoides: SCPJO) were sown and slightly covered with soil. Then the pot was left to stand still in a greenhouse in a state where the depth of flooding water was from 0.5 to 1 cm, and one day later, tubers of japanese ribbon wapato (Sagittaria pygmaea: SAGPY) were planted. Thereafter, the depth of flooding water was maintained at a level of from 3 to 4 cm, and when barnyardgrass and japanese bulrush reached a 0.5 leaf stage, an aqueous diluted solution of a wettable powder or emulsifiable concentrate having the compound of the present invention formulated in accordance with a usual formulation method, was uniformly applied under submerged condition by a pipette so that the dose of the active ingredient would be at a predetermined level. On the other hand, paddy filed soil was put into a {fraction (1/1,000,000)} ha pot and puddled and leveled, and the depth of flooding water was from 3 to 4 cm. One day later, rice (Oryza sativa L.: ORYSA) of 2 leaf stage was transplanted in a depth of 3 cm. On the 4th day after the transplantation, the compound of the present invention was applied in the same manner as described above. On the 14th day after the application of the herbicide, the growth of barnyardgrass, japanese burlush and japanese ribbon wapato was visually observed and on the 21st day after the application of the herbicide, the growth of rice was visually observed, and the herbicidal effects were evaluated by growth controlling degrees (%) ranging from 0 (equivalent to the untreated control) to 100 (complete kill), whereby the results shown in Table 13, were obtained. Compound Nos. in Table 13 correspond to Compound Nos. in Table 1 to 7 given hereinbefore.

[12] = system: barnyardgrass (Echinochloa oryzicola: ECHOR); assay: as above; details: rate 63 g a.i./ha, water application under submerged condition, paddy pot, barnyardgrass at 0.5 leaf stage
Excerpt: as §2

[13] = system: japanese ribbon wapato (Sagittaria pygmaea: SAGPY); assay: as above; details: rate 63 g a.i./ha; water application under submerged condition, paddy pot; tubers of japanese ribbon wapato planted
Excerpt: as §2

[14] = system: japanese bulrush (Scirpus juncoides: SCPJO); assay: as above; details: rate 63 g a.i./ha, water application under submerged condition, paddy pot, japanese bulrush at 0.5 leaf stage
Excerpt: as §2

[15] = system: velvetleaf (Abutilon theophrasti): ABUTH; assay: Test Example 1: pre-emergence herbicidal activity (growth controlling degree); details: 500 g a.i./ha, 20th to 21st day after application
Excerpt: (§3) Upland field soil was put into a 1/170,000 ha pot, and seeds of various plants [1. barnyardgrass (Echinochloa crus-galli L.): ECHCC, 2. crabgrass (Digitaria sanguinalis L.): DIGSA, 3. green foxtail (Setaria viridis L.): SETVI, 4. redroot pigweed (Amaranthus retroflexus L.): AMARE, 5. prickly sida (Sida spinosa L.): SIDSP, 6. velvetleaf (Abutilon theophrasti): ABUTH, 7. common cocklebur (Xanthium strumarium L.): XANST, 8. rice (Oryza sativa L.): ORYSA, 9. wheat (Triticum aestivum L.): TRZAX, 10. corn (Zea mays L.): ZEAMX, 11. soybean (Glycine max Merr.): GLXMA] were sown. Then, one day after the sowing, a wettable powder or emulsifiable concentrate having the compound of the present invention formulated in accordance with a usual formulation method, was weighed so that the active ingredient would be a predetermined amount, and diluted with water in an amount of 500 L/ha. The herbicide adjusted was applied by a small size sprayer for pre-emergence treatment. On the 20th to 21st day after the application of the herbicide, the growth of the respective plants was visually observed, and the herbicidal effects were evaluated by growth controlling degrees (%) ranging from 0 (equivalent to the untreated control) to 100 (complete kill), whereby the results shown in Table 11, were obtained. Compound Nos. in Table 11 correspond to Compound Nos. in Table 1 to 7 given hereinbefore.

[16] = system: corn (Zea mays L.): ZEAMX; assay: as above; details: 500 g a.i./ha, 20th to 21st day after application
Excerpt: as §3

[17] = system: redroot pigweed (Amaranthus retroflexus L.): AMARE; assay: as above; details: 500 g a.i./ha, 20th to 21st day after application
Excerpt: as §3

[18] = system: prickly sida (Sida spinosa L.): SIDSP; assay: as above; details: 500 g a.i./ha, 20th to 21st day after application
Excerpt: as §3

[19] = system: common cocklebur (Xanthium strumarium L.): XANST; assay: as above; details: 500 g a.i./ha, 20th to 21st day after application
Excerpt: as §3

[20] = system: crabgrass (Digitaria sanguinalis L.): DIGSA; assay: as above; details: 500 g a.i./ha, 20th to 21st day after application
Excerpt: as §3

[21] = system: barnyardgrass (Echinochloa crus-galli L.): ECHCC; assay: as above; details: 500 g a.i./ha, 20th to 21st day after application
Excerpt: as §3

[22] = system: green foxtail (Setaria viridis L.): SETVI; assay: as above; details: 500 g a.i./ha, 20th to 21st day after application
Excerpt: as §3

[23] = system: rice (Oryza sativa L.): ORYSA; assay: as above; details: 500 g a.i./ha, 20th to 21st day after application
Excerpt: as §3

Cn1nc(-c2c(F)cc(Cl)c3c2CCC(C)(C)O3)c(Cl)c1OC(F)F [Compound 1-40, 4-chloro-3-(8-chloro-6-fluoro-3,4-dihydro-2,2-dimethyl-2H-1-benzopyran-5-yl)-5-(difluoromethoxy)-1-methyl-1H-pyrazole]
pest or weed control at 31 g/ha ([1]; Glycine max, 504 h, 31 g a.i./ha): 60% | pest or weed control at 31 g/ha ([2]; Abutilon theophrasti, 504 h, 31 g a.i./ha): 100% | plant injury at 31 g/ha ([3]; Zea mays, 504 h, 31 g a.i./ha): 70% | growth controlling degree, AMARE ([4]; 31 g a.i./ha): 100% | pest or weed control at 31 g/ha [5]: 100% | pest or weed control at 31 g/ha ([6]; Sida spinosa, 504 h, 31 g a.i./ha): 100% | pest or weed control at 31 g/ha ([7]; Echinochloa crus-galli, 504 h, 31 g a.i./ha): 100% | plant injury at 31 g/ha ([8]; Oryza sativa, 504 h, 31 g a.i./ha): 70% | pest or weed control at 31 g/ha ([9]; Digitaria sanguinalis, 504 h, 31 g a.i./ha, read-out: growth controlling degree, DIGSP): 100% | pest or weed control at 31 g/ha ([10]; Setaria viridis, 504 h, 31 g a.i./ha): 100% | pest or weed control at 63 g/ha ([11]; Oryza sativa, 504 h): 35% | pest or weed control at 63 g/ha ([12]; Echinochloa oryzicola, 336 h): 100% | Water Application Herbicidal Activity SAGPY (growth controlling degree) [13]: 95% | pest or weed control at 63 g/ha ([14]; Schoenoplectiella juncoides, 336 h): 100%

CC1CCc2c(c(Cl)cc(F)c2-c2ncc(C(F)(F)F)cc2Cl)O1 (centres unmarked) [Compound 7-4]
growth controlling degree, ABUTH [15]: 100% | growth controlling degree, ZEAMX [16]: 40% | growth controlling degree, AMARE [17]: 100% | growth controlling degree, SIDSP [18]: 100% | growth controlling degree, XANST [19]: 10% | growth controlling degree, DIGSP [20]: 100% | growth controlling degree, ECHCG [21]: 70% | growth controlling degree, SETVI [22]: 100% | growth controlling degree, ORYSA [23]: 30% | growth controlling degree, GLXMA ([1]; 63 g a.i./ha): 50% | growth controlling degree, ABUTH ([2]; 63 g a.i./ha): 100% | growth controlling degree, ZEAMX ([3]; 63 g a.i./ha): 70% | growth controlling degree, AMARE ([4]; 63 g a.i./ha): 95% | growth controlling degree, SIDSP ([6]; 63 g a.i./ha): 80% | growth controlling degree, ECHCG ([7]; 63 g a.i./ha): 50% | growth controlling degree, ORYSA ([8]; 63 g a.i./ha): 60% | growth controlling degree, DIGSP ([9]; 63 g a.i./ha): 50% | growth controlling degree, SETVI ([10]; 63 g a.i./ha): 80% | Water Application Herbicidal Activity ORYSA (growth controlling degree) [11]: 0% | Water Application Herbicidal Activity ECHOR (growth controlling degree) [12]: 70% | Water Application Herbicidal Activity SCPJO (growth controlling degree) [14]: 90%
